Results as given in article PMC11124341, “4-Hydroxybenzoic Acid-Based Hydrazide–Hydrazones as Potent Growth Inhibition Agents of Laccase-Producing Phytopathogenic Fungi That Are Useful in the Protection of Oilseed Crops” (Molecules, 2024).
≈ marks a conversion by molar mass, not a printed value.

How the values were obtained:
[1] = test system: Cerrena unicolor strain no. 139; test: In vitro antifungal activity, mycelial growth inhibition on PDA medium; format: cell-based; details: for inhibition of growth at 50 µg/mL / IC50 / inhibition at 50 µg/mL: Cerrena unicolor, NO.139; for inhibition of growth at 50 µg/mL: read-out: fungal growth inhibition, C. unicolor; for IC50: log-logistic model, 0–50 µg/mL range, read-out: IC50 against Cerrena unicolor (Cu); for inhibition at 50 µg/mL: fungicidal profile, read-out: C. unicolor inhibition
How it was run: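 Compounds in PDA plates (ethanol or DMSO co-solvent, 0.1–1.0% v/v), screened at 50 µg/mL, selected ones at 0–50 µg/mL; 5 mm mycelial plug placed centrally, 22 °C dark until co-solvent control covered (3 d B. cinerea, S. sclerotiorum; 7 d C. unicolor). IC50 from nonlinear dose–response fit, only where growth fell >50%.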

[2] = test system: Botrytis cinerea strain FBc05; test: as above; format: cell-based; details: for fungal growth inhibition, B. cinerea / inhibition of growth at 50 µg/mL: screening at basal 50 µg/mL, PDA medium, mean ± SD of three determinations; for inhibition of growth at 50 µg/mL / inhibition at 6.25 µg/mL / inhibition at 25 µg/mL / inhibition at 50 µg/mL / IC50: Botrytis cinerea, FBC05; for inhibition of growth at 50 µg/mL: read-out: fungal growth inhibition, B. cinerea; for inhibition at 6.25 µg/mL / inhibition at 25 µg/mL / inhibition at 50 µg/mL: fungicidal profile, read-out: B. cinerea inhibition; for IC50: log-logistic model, 0–50 µg/mL range, read-out: IC50 against Botrytis cinerea (Bc)
[3] = test system: Sclerotinia sclerotiorum strain FSc10; test: as above; format: cell-based; details: for inhibition of growth at 50 µg/mL / fungal growth inhibition, S. sclerotiorum: screening at basal 50 µg/mL, PDA medium, mean ± SD of three determinations; for inhibition of growth at 50 µg/mL: read-out: fungal growth inhibition, S. sclerotiorum; for IC50: log-logistic model, 0–50 µg/mL range, read-out: IC50 against Sclerotinia sclerotiorum (Ss)
[4] = target: laccase from Trametes versicolor; details: read-out: Laccase inhibition, Ki; cited from earlier work
[5] = test system: sunflower (Helianthus annuus L.) seeds; test: Phytotest 1: phytotoxicity, seed germination and root growth; format: in vivo; details: 50 µg/mL; versus water–ethanol 0.5% (v/v) control; <90% inhibition, 90–110% no effect, >110% stimulation
From the text: In the experiments with plants, two aspects were taken under consideration: (1) phytotoxicity, which determined the toxicity of the hydrazide–hydrazones on seed germination and root growth, and (2) study on the behavior of seeds in the presence of the tested hydrazide–hydrazones and pathogens producing laccase (B. cinerea and S. sclerotiorum). The non-coated seeds of Linum usitatissimum, Helianthus annuus, and Brassica napus var. napus were provided by the Institute of Soil Science and Plant Cultivation, National Research Institute in Pulawy, Department of Weed Science and Tillage Systems, and Institute of Technology and Life Sciences–National Research Institute Falenty (Poland). Both phytotests were performed based on direct-contact microbiotests following the protocol recommended by the manufacturer (PhytotestkitTM, MicroBio Tests, Mariakerke, Belgium) with the authors’ modifications.
The main phytotest equipment (Tigret, Warsaw, Poland) and general methods are described as follows. Test plates (21 × 15.5 × 0.8 cm) provide optimal moisture and enable observation of seed germination and data reading at the end of the test. A single plate is made of polyvinylchloride and composed of both a transparent bottom and a covering part that are stuck together by a set of press buttons. […] Such prepared wet support was covered with a black filter paper that soaked the solution and was applied for further testing.
In the assay of phytotoxicity (1), the seeds of three dicota plants were used, namely ten seeds of flax or rapeseed and six seeds of sunflower. The seeds were transferred directly on the filter surface by placing them along the line at approximately 1 cm from the ridge at equal distances. Then, the seeds on the filter surface were covered with a covering part and placed in a holder.
All test plates were put vertically in a special incubator to allow free germination and growth of roots at 25 °C through 5 days in the dark. The test was performed in triplicate for each test plant. The results were expressed as the germination index values (GI, Equation (2)) concerning the plant growth controls in water–ethanol solution for (1). […] The GI was calculated from the formula and categorized as an inhibition for GI values < 90%, as stimulation > 110%, and between 90 and 110% as non-toxic/no effect as proposed in the literature. (2) GI,%=Gs×Ls/Gc×Lc×100% where Gs is seed germination (%), Ls is root elongation (mm) for the test plate, and Gc and Lc are corresponding values for the control plates. Gc was calculated as the proportion of germinated seeds in the test in relation to the number of germinated seeds in the control. The control was the representative number of seeds that germinated on a medium with 0.5% (v/v) of ethanol.

[6] = screening at basal 50 µg/mL, PDA medium, mean ± SD of three determinations
[7] = Sclerotinia sclerotiorum, FSC10
[8] = Sclerotinia sclerotiorum, FSC10, fungicidal profile, read-out: S. sclerotiorum inhibition

Compound	inhibition of growth at 50 µg/mL [1, 6] [%]	fungal growth inhibition, B. cinerea [2]	inhibition of growth at 50 µg/mL [3, 7] [%]	Ki [4] [µM]	IC50 [1] [µg/mL]	inhibition of growth at 50 µg/mL [2] [%]	inhibition at 6.25 µg/mL [3, 8] [%]	inhibition at 50 µg/mL ([3]; Sclerotinia sclerotiorum, FSC10, fungicidal profile, 50 µg/mL, read-out: S. sclerotiorum inhibition) [%]	IC50 [3, 7] [µg/mL]	Germination index (GI), sunflower, test 1 [5]	fungal growth inhibition, C. unicolor [1, 6]	fungal growth inhibition, S. sclerotiorum [3]	inhibition at 50 µg/mL [1] [%]	inhibition at 6.25 µg/mL [2] [%]	inhibition at 25 µg/mL [2] [%]	inhibition at 50 µg/mL [2] [%]	IC50 [2] [µg/mL]	inhibition at 12.5 µg/mL [3, 8] [%]
COc1cc(/C=N/NC(=O)c2ccc(O)cc2)ccc1O [compound 17]	11.9 ± 0.8	n.o.	7.3 ± 2.1	251														
CC(C)(C)c1cc(/C=N/NC(=O)c2ccc(O)cc2)c(O)c(C(C)(C)C)c1 [compound 27]	42.8 ± 2.2		85.5 ± 3.2	17.9	2190 (≈ 5950 µM)	23.4 ± 2.7	82.9	93.1	0.5 (≈ 1.36 µM)	82%								
O=C(N/N=C/c1cc(O)ccc1O)c1ccc(O)cc1 [compound 13]		n.o.								87%	n.o.	n.o.						
CC(C)(C)c1cccc(/C=N/NC(=O)c2ccc(O)cc2)c1O [compound 18]	85.9 ± 2.1		97.1 ± 1.1	24	18.3 (≈ 58.6 µM)	82.1 ± 3.1	70.6 to 87.6		1.8 (≈ 5.76 µM)	no effect			76.5	20.2	56.4	64.7	20 (≈ 64 µM)	96.3
O=C(N/N=C/c1cccc(-c2ccccc2)c1O)c1ccc(O)cc1 [compound 19]	71.4 ± 2.1		50.6 ± 5.5	25.3	20.3 (≈ 61.1 µM)	73.5 ± 3.3			69.9 (≈ 210 µM)	no effect			70.5	30.1	70.1	74.1	13.9 (≈ 41.8 µM)	
Cc1cc(/C=N/NC(=O)c2ccc(O)cc2)c(O)c(CO)c1 [compound 25]	70.1 ± 1.8			≥ 1000		2.8 ± 1.9				non-toxic		n.o.						
Cc1cc(/C=N/NC(=O)c2ccc(O)cc2)c(O)c(C(C)(C)C)c1 [compound 30]	89.8 ± 0.4		96.8 ± 2.2	26.4	13.5 (≈ 41.4 µM)	76.2 ± 2.2	70.6 to 87.6		0.8 (≈ 2.45 µM)	67%			90.5				62.5 (≈ 191 µM)	98.7
